How the values were obtained:
[1] = In-vitro stability in different pH buffers (aldehyde peak absorbance at 349 nm); format: physicochemical; settings: for Stability (absorbance of aldehyde peak at 349 nm): 1 mM, 37 °C
Experimental: The stability of Pro-7 and the control TD-7 in different pH buffers (PBS buffer at pH 7.4, KCl·HCl buffer at pH 2.0, and Tris buffer at pH 8.0) was evaluated over time as previously reported. The ionic strength of all buffers was kept constant at 150 mM. A 200 mM stock solution of each compound was prepared using anhydrous DMSO. 1 mM solutions of each of the test compounds TD-7 and Pro-7 were prepared in duplicate for each of the three different pH buffers. […]
An in-vitro time-dependent (1–96 h) stability study of Pro-7 was conducted to inform the formulation of the prodrug. The study was conducted at three different pHs: 2.0, 7.4 and 8.0, which mimic stomach, blood and intestinal pH conditions, respectively. The presence of TD-7 or the rate of appearance of TD-7 upon dissociation of Pro-7 was monitored at 349 nm spectrophotometrically.

[2] = biological target: T1, Hb in human normal whole blood (Homo sapiens, UniProt P69905); assay: In-vitro time-dependent Hb modification (Hb adduct formation), cation-exchange HPLC; format: cell-based; settings: 2 mM; for %Hb Modification (Hb Adduct): normal whole blood 30% hematocrit
T1 construct: normal whole blood (AA) was collected from adult donors; from tissue; host or cells: normal (AA) human whole blood from adult donors, 30% hematocrit
T1 sequence (P69905 2-142 limits assumed): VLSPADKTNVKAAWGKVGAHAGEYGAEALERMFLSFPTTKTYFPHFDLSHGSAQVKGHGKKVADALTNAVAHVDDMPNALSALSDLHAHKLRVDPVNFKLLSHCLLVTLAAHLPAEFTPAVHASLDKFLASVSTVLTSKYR
T1 sequence (P68871 2-147 partner limits assumed): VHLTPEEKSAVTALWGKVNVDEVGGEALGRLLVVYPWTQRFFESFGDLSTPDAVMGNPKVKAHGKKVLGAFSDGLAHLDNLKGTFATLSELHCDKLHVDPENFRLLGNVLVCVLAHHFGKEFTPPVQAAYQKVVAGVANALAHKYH
Experimental: Pro-7 and the control TD-7 were used to conduct time-dependent Hb modification (Hb adduct formation) studies using normal whole blood as previously reported. A 200 mM stock solution of each compound was made with DMSO. In a 96-well 1.2 mL polypropylene deep-well plate (Thermo Scientific, Hampshire, UK), 2.0 mM concentration of each compound was added to 600 μL of whole blood (30% hematocrit), which was then incubated at 37 °C for 24 h with shaking (at 140 rpm). A control sample was supplemented only with an equivalent volume of DMSO. At different time points (0–24 h), 50 μL aliquots of this mixture were withdrawn from each well using a multichannel pipette and added to respective tubes containing 50 μL of sodium cyanoborohydride (NaBH3CN) and sodium borohydride (NaBH4) mixture (1:1 v/v 50 mM stock) to terminate the Schiff-base reaction, fix the Schiff-base Hb adducts and reduce the free reactive aldehyde. After mixing, the tubes were stored immediately at −80 °C until ready for analysis using cation-exchange HPLC (Hitachi D-7000 Series, Hitachi Instruments, Inc. San Jose, CA, USA) for Hb-compound adduct formation. The observed Hb adducts in %Hb modification were plotted as a function of time (h).
(§1) Human normal whole blood was used to assess the degree of Hb modification and Hb oxygen affinity (P50 shift), while sickle blood was used to investigate RBC sickling inhibition. Pro-7 and the positive control TD-7 were incubated with normal whole blood suspensions. […] For the sickling inhibition study, Pro-7 and the positive control TD-7 were incubated with SS blood suspensions under hypoxic conditions (2.5% O2/97.5% N2), and aliquot blood samples were drawn at three time points (1, 3 and 6 h) and used for assessing RBC morphology. The results summarized in Table 1 and Figure 4A–C show time-dependent effects for all three pharmacodynamic activities. […] Even at the end of the 24-h experiment, Pro-7 activity was still increasing.

[3] = biological target: T1, Hb in human normal whole blood; assay: In-vitro time-dependent oxygen equilibrium study (P50 shift); format: cell-based; settings: 2 mM; for %Hb O2 Affinity (P50 Shift): normal whole blood 30% hematocrit
Experimental: An oxygen equilibrium curve study was conducted in a time-dependent manner to determine the effect and duration of Pro-7 on Hb affinity for oxygen (P50 shift) following standard procedure. Pro-7, along with the controls TD-7 and DMSO were used for the studies with normal whole blood sample (30% hematocrit). Each compound was incubated with the blood at a final concentration of 2 mM, and aliquot samples were taken at 1, 3, 6, 12 and 24 h and further incubated in IL 237 tonometer (Instrumentation Laboratories, Inc., Lexington, MA, USA) for 10 min at 37 °C, and allowed to equilibrate at oxygen tensions 6, 20, and 40 mmHg. The samples were then aspirated into a Radiometer ABL 800 Automated Blood Gas Analyzer (Copenhagen, Denmark ) to determine the pH, partial pressure of CO2 (pCO2), partial pressure of oxygen (pO2), and Hb oxygen saturation values (SO2). The measured values of pO2 (mmHg) and SO2 at each pO2 value were then subjected to a non-linear regression analysis using the program Scientist (Micromath, Salt Lake City, UT, USA) to estimate P50 as a measure of Hb oxygen affinity as previously reported.
as §1

[4] = system: SS cells (homozygous sickle cell blood); assay: In-vitro time-dependent RBC sickling inhibition under hypoxia; format: cell-based, human; settings: 2 mM; for inhibition at 2000 µM: Homo sapiens, SS cells 20% hematocrit, hypoxia (4% oxygen/96% nitrogen)
Experimental: Red blood cell sickling inhibition studies with Pro-7 and the control TD-7 was conducted using previously reported procedure. Blood suspensions from subjects with homozygous SCD (hematocrit 20%) were incubated under air in the absence or presence of test compounds at 37 °C for 1 h to ensure that binding has attained equilibrium. […] Aliquot samples were fixed with 2% glutaraldehyde solution without exposure to air, and then subjected to microscopic morphological analysis.
Human normal whole blood was used to assess the degree of Hb modification and Hb oxygen affinity (P50 shift), while sickle blood was used to investigate RBC sickling inhibition. […] The results summarized in Table 1 and Figure 4A–C show time-dependent effects for all three pharmacodynamic activities. […] Even at the end of the 24-h experiment, Pro-7 activity was still increasing.

COc1ccc(OCc2cccc(CO)n2)c(C=O)c1 [TD-7, 2-((6-(hydroxymethyl)pyridin-2-yl)methoxy)-5-methoxybenzaldehyde]
Stability (absorbance of aldehyde peak at 349 nm) ([1]; pH 2.0, 0 hr): 3.23 ± 0.08 | stability in buffer (in words) ([1]; pH 2.0, 7.4 and 8.0, 96 h experiment): showed stability at all three pHs | Stability (absorbance of aldehyde peak at 349 nm) ([1]; pH 2.0, 1 hr): 3.02 ± 0.00 | Stability (absorbance of aldehyde peak at 349 nm) ([1]; pH 2.0, 2 hr): 3.03 ± 0.04 | Stability (absorbance of aldehyde peak at 349 nm) ([1]; pH 2.0, 3 hr): 2.97 ± 0.04 | Stability (absorbance of aldehyde peak at 349 nm) ([1]; pH 2.0, 6 hr): 2.98 ± 0.01 | Stability (absorbance of aldehyde peak at 349 nm) ([1]; pH 2.0, 24 hr): 2.93 ± 0.01 | Stability (absorbance of aldehyde peak at 349 nm) ([1]; pH 7.4, 0 hr): 3.05 ± 0.10 | Stability (absorbance of aldehyde peak at 349 nm) ([1]; pH 7.4, 1 hr): 2.97 ± 0.01 | Stability (absorbance of aldehyde peak at 349 nm) ([1]; pH 7.4, 2 hr): 2.95 ± 0.03 | Stability (absorbance of aldehyde peak at 349 nm) ([1]; pH 7.4, 3 hr): 3.09 ± 0.06 | Stability (absorbance of aldehyde peak at 349 nm) ([1]; pH 7.4, 6 hr): 2.92 ± 0.02 | Stability (absorbance of aldehyde peak at 349 nm) ([1]; pH 7.4, 24 hr): 2.98 ± 0.07 | Stability (absorbance of aldehyde peak at 349 nm) ([1]; pH 7.4, 28 hr): 2.90 ± 0.04 | Stability (absorbance of aldehyde peak at 349 nm) ([1]; pH 7.4, 48 hr): 3.00 ± 0.05 | Stability (absorbance of aldehyde peak at 349 nm) ([1]; pH 7.4, 56 hr): 2.98 ± 0.08 | Stability (absorbance of aldehyde peak at 349 nm) ([1]; pH 7.4, 72 hr): 2.92 ± 0.05 | Stability (absorbance of aldehyde peak at 349 nm) ([1]; pH 7.4, 96 hr): 2.95 ± 0.03 | Stability (absorbance of aldehyde peak at 349 nm) ([1]; pH 8.0, 0 hr): 1.82 ± 0.05 | Stability (absorbance of aldehyde peak at 349 nm) ([1]; pH 8.0, 1 hr): 1.79 ± 0.00 | Stability (absorbance of aldehyde peak at 349 nm) ([1]; pH 8.0, 2 hr): 1.73 ± 0.01 | Stability (absorbance of aldehyde peak at 349 nm) ([1]; pH 8.0, 3 hr): 1.73 ± 0.01 | Stability (absorbance of aldehyde peak at 349 nm) ([1]; pH 8.0, 6 hr): 1.71 ± 0.01 | Stability (absorbance of aldehyde peak at 349 nm) ([1]; pH 8.0, 24 hr): 1.73 ± 0.02 | Stability (absorbance of aldehyde peak at 349 nm) ([1]; pH 8.0, 28 hr): 1.70 ± 0.02 | Stability (absorbance of aldehyde peak at 349 nm) ([1]; pH 8.0, 48 hr): 1.68 ± 0.03 | Stability (absorbance of aldehyde peak at 349 nm) ([1]; pH 8.0, 72 hr): 1.73 ± 0.03 | Stability (absorbance of aldehyde peak at 349 nm) ([1]; pH 8.0, 96 hr): 1.68 ± 0.04 | %Hb Modification (Hb Adduct) ([2]; 0 h): 0.00 ± 0.00% | time of peak effect, Hb modification ([2]; normal whole blood): 12 h | %Hb Modification (Hb Adduct) ([2]; 1 h): 25.20 ± 1.20% | %Hb Modification (Hb Adduct) ([2]; 2 h): 23.40 ± 3.50% | %Hb Modification (Hb Adduct) ([2]; 4 h): 41.70 ± 4.30% | %Hb Modification (Hb Adduct) ([2]; 8 h): 47.30 ± 4.70% | %Hb Modification (Hb Adduct) ([2]; 12 h): 48.30 ± 0.50% | %Hb Modification (Hb Adduct) ([2]; 24 h): 43.30 ± 1.90% | time of peak effect, Hb oxygen affinity ([3]; normal whole blood): peaked quickly at the first hour | %Hb O2 Affinity (P50 Shift) ([3]; 1 h): 69.26% | %Hb O2 Affinity (P50 Shift) ([3]; 3 h): 67.42% | %Hb O2 Affinity (P50 Shift) ([3]; 6 h): 49.06% | %Hb O2 Affinity (P50 Shift) ([3]; 12 h): 49.58% | %Hb O2 Affinity (P50 Shift) ([3]; 24 h): 48.56% | time of peak effect, RBC sickling inhibition ([4]; SS blood, hypoxia): peaked quickly at the first hour | inhibition at 2000 µM ([4]; 1 h): 76.3% | inhibition at 2000 µM ([4]; 3 h): 59.6% | inhibition at 2000 µM ([4]; 6 h): 54%
